Experimental data reported in ChEMBL document CHEMBL1128048, “Synthesis of chromophoric dipeptides as substrates for papain” (Bioorg Med Chem Lett, 1995).

Experiments:
Format in all cases: ADME
[1] = Compound was evaluated for catalytic constant, Kcat
[2] = Ratio of catalytic constant to Michaelis-Menten constant (Kcat/Km)
[3] = Compound was evaluated for Michaelis-Menten constant, Km

k cat [1] [s⁻¹]	Ratio [2]	Km [3] [Me-3]	Compound
0.0012			Cc1ccc(/C=C\C(=O)n2ccnc2)s1
0.0033	0.05	3.9	CCOC(=O)/C(=C\c1ccc(C)s1)NC(=O)[C@H](C)NC(C)=O
0.0033	3.2	0.062	CCOC(=O)/C(=C\c1ccc(C)s1)NC(=O)[C@H](Cc1ccccc1)NC(C)=O
0.0013			CCOC(=O)N/C(=C/c1ccc(C)s1)C(=O)n1ccnc1
